Assay results from US8980933B2, “Combretastatin analogs for use in the treatment of cancer” (Universitat Bayreuth, priority 2010, dated 2015).
In brackets after ≈: the same amount, converted by molar mass. Several values for one entry are separate records, joined by “and”; a condition that tells them apart may be missing. Identical values can stand only once.

Experiments:
[1] = tested on: HT-29 colon carcinoma cells; assay: MTT cell growth inhibition, HT-29; format: cell-based, human; conditions: multi-drug resistant HT-29 colon cancer cells
Procedure: (§1) The effects of the compounds 5b, 6b, 8a, and 8e according to the present invention and of the reference compound 25f (Wang et al., J. Med. Chem. 2002, 45, 1697-1711) on cells of the following human tumor cell lines were evaluated: 518A2 melanoma, HL-60 leukemia, HT-29 colon carcinoma, KB-V1/Vbl cervical carcinoma, and MCF-7/Topo breast carcinoma.
(§2) The HL-60 cells were obtained from the German Collection of Biological Material (DSMZ), Braunschweig, Germany; the human 518A2 melanoma cells as well as the testicular germ cell tumor cell lines H12.1 and 1411HP were cultured in the department of oncology and hematology, Medical Faculty of the Martin-Luther University, Halle, Germany; the KBV1/Vbl and the MCF-7/Topo cells were obtained from the Institute of Pharmacy of the University Regensburg, Germany; and the colon HT-29 cells from the University Hospital Erlangen, Germany. The HL-60 and the HT-29 cells were grown in RPMI-1640 medium supplemented with 10% fetal calf serum (FCS), 100 IU/mL penicillin G, 100 μg/mL streptomycin sulfate, 0.25 μg/mL amphotericin B and 250 μg/mL gentamycine (all from Gibco, Egenstein, Germany). The 518A2 and the KB-V1/Vbl cells were cultured in Dulbecco's Modified Eagle Medium (D-MEM, Gibco) containing 10% FCS, 100 IU/mL penicillin G, 100 μg/mL streptomycin sulfate, 0.25 μg/mL amphotericin B and 250 μg/mL gentamycine. The MCF-7/Topo cells were grown in E-MEM medium (Sigma) supplemented with 2.2 g/L NaHCO3, 110 mg/L sodium pyruvate and 5% FCS. The cells were maintained in a moisture-saturated atmosphere (5% CO2) at 37° C. in 75-mL culture flasks (Nunc, Wiesbaden, Germany). They were serially passaged following trypsinisation by 0.05% trypsin/0.02% EDTA (PAA laboratories, Clbe, Germany). Mycoplasma contamination was routinely monitored, and only mycoplasma-free cultures were used.
(§3) MTT [3-(4,5-dimethylthiazol-2-yl)-2,5-diphenyltetrazolium bromide](ABCR) was used to identify viable cells which reduce it to a violet formazan (Mosmann, J. Immunol. Methods 1983, 65, 55-63). HL-60 leukemia cells (5×10^5/mL), and cells (5×10^4/mL) of 518A2 melanoma, HT-29 colon, KB-V1/Vbl cervix and MCF-7/Topo breast carcinoma were seeded out in 96-well tissue culture plates and cultured for 24 h. Incubation (5% CO2, 95% humidity, 37° C.) of the cells following treatment with the test compounds was continued for 24, 48 or 72 h. Blank and solvent controls were treated identically. MTT in phosphate buffered saline (5 mg/mL) was added to a final concentration of 0.05% (HL-60, 518A2) or 0.1% (HT-29, KB-V1/Vbl, MCF-7/Topo). After 2 h the formazan precipitate was dissolved in 10% sodium dodecylsulfate in DMSO containing 0.6% acetic acid in the case of the HL-60 cells. For the adherent 518A2, KB-V1/Vbl, MCF-7/Topo and HT-29 cells the microplates were swiftly turned to discard the medium before adding the solvent mixture. The microplates were gently shaken in the dark for 30 min and absorbance at 570 nm and 630 nm (background) was measured with an ELISA plate reader. All experiments were carried out in quadruplicate; the percentage of viable cells was calculated as the mean±SD with controls set to 100%.

[2] = tested on: vascular system of a fertilized chicken embryo; assay: CAM assay; format: in vivo; conditions: 10 nmol applied on the embryonal vessels; up to three days
Procedure: Compounds of the present invention were tested for anti-angiogenic and vasculature disrupting properties using the CAM assay. In this test the vascular system of a fertilized chicken embryo is used as a model (Wilting et al., Anat. Embryol. 1991, 183, 259-271).
Fertilized chicken eggs received from a nearby farm directly after laying have been incubated at a temperature of 36-38° C. and a relative humidity of 60%. During the growth the eggs have been held in an inclined position and turned from time to time in order to avoid an adherence to the shell. After four days each embryo was transferred into a cavity created by fixing a thin plastic foil on top of a cup and covered. This was done by opening the shell at the flat end where the air sac resides and letting the content slip out. There the growth continued for another 2-4 days until the first blood vessels became visible. Then 10 nmol of the substance to be tested (in 10 μL PBS with 1% DMF) have been applied directly on the embryonal vessels. As a reference PBS was used. Finally incubation continued for up to another three days (Dugan et al., Anat. Rec. 1991, 229, 125-128; Fisher, Tested studies for laboratory teaching 1993, 5, 105-115).

[3] = tested on: KB-V1/Vbl cervical carcinoma cells; assay: MTT cell growth inhibition, KB-V1/Vbl; format: cell-based, human; conditions: KB-V1/Vbl (Pgp+)
Procedure: The MCF-7/Topo cells were grown in E-MEM medium (Sigma) supplemented with 2.2 g/L NaHCO3, 110 mg/L sodium pyruvate and 5% FCS. The cells were maintained in a moisture-saturated atmosphere (5% CO2) at 37° C. in 75-mL culture flasks (Nunc, Wiesbaden, Germany). They were serially passaged following trypsinisation by 0.05% trypsin/0.02% EDTA (PAA laboratories, Clbe, Germany). Mycoplasma contamination was routinely monitored, and only mycoplasma-free cultures were used.
as §3, with “HL-60” for “MTT [3-(4,5-dimethylthiazol-2-yl)-2,5-diphenyltetrazolium bromide](ABCR) was used to identify viable cells which reduce it to a violet formazan (Mosmann, J. Immunol. Methods 1983, 65, 55-63). HL-60”, “Incubation (5% CO2, 95% humidity, 37° C.) of the cells following treatment with the test compounds was continued for 24, 48 or 72 h.” left out

[4] = tested on: MCF-7/Topo breast carcinoma cells; assay: MTT cell growth inhibition, MCF-7/Topo; format: cell-based, human; conditions: MCF-7/Topo (BCRP+)
Procedure: as §1, §2
as §3, with “MTT in phosphate buffered saline (5 mg/mL) was added to a final concentration of 0.05% (HL-60, 518A2) or 0.1% (HT-29, KB-V1/Vbl, MCF-7/Topo). After 2 h the formazan precipitate was dissolved in 10% sodium dodecylsulfate in DMSO containing 0.6% acetic acid in the case of the HL-60 cells. For the adherent 518A2, KB-V1/Vbl, MCF-7/Topo and HT-29 cells the microplates were swiftly turned to discard the medium before adding the solvent mixture.” left out

[5] = tested on: 518A2 cells; assay: ROS generation, NBT assay, 518A2; format: cell-based, human; conditions: 50 μM, relative to untreated controls (1%), mean ± SD
Procedure: (§4) The generation of reactive oxygen species (ROS) in tumor cells is a sign of cellular stress resulting in severe damage of cellular components such as DNA, lipids or proteins.
(§5) For the NBT assay, HL-60 cells (0.5·10^6/mL) were plated in 96-well tissue culture plates, and test compounds were added after 24 h incubation at 37° C. to achieve a final concentration of 50 μM. […] After removal of the cell medium by centrifugation, the cells in each well were resuspended in 100 μL 0.1% NBT, and the plates were placed in the incubator for 1 h. The reduced NBT was solubilized with 100 μl 2 M KOH and 130 μl DMSO for 30 min. The absorbance was measured for each well at 630 and 405 nm (background) using an ELISA plate reader. The adherent 518A2 cells (0.5·10^4/mL) were seeded out in 96-well tissue culture plates after trypsinization and incubation for 24 h at 37° C. to allow attachment, then treated similarly, only that the medium was removed prior to incubation with NBT for 4 h. All experiments were carried out in quadruplicate.

[6] = tested on: HL-60 cells; assay: ROS generation, NBT assay, HL-60; format: cell-based, human; conditions: 50 μM, relative to untreated controls (1%), mean ± SD
Procedure: as §4, §5

[7] = tested on: 518A2 cells; assay: Mitochondrial membrane assay (JC-1), 518A2; format: cell-based, human; conditions: 5 μM, red/green fluorescence ratio relative to untreated controls (100%), mean ± SD
Procedure: (§6) Values represent means of four independent experiments±standard deviation.
(§7) Changes in mitochondrial membrane potential were determined by the Mitochondrial Membrane Detection Kit (Stratagene, La Jolla, Calif., USA) according to the manufacturer's procedure. 72 h following treatment with 5 μM of the test compounds, cell samples were centrifuged at 400 g for 5 min. The pellets were resuspended in 500 μL diluted JC-1 solution, incubated at 37° C. for 15 min (HL-60) and then centrifuged again for 5 min at 400 g. After washing, the pellets were resuspended in 100 μL PBS and transferred into the wells of a black 96-well plate. The red (λex=585 nm, λem=590 nm) and green (λex=510 nm, λem=527 nm) fluorescence intensities were measured and their ratio was calculated.

[8] = tested on: HL-60 cells; assay: Mitochondrial membrane assay (JC-1), HL-60; format: cell-based, human; conditions: 5 μM, red/green fluorescence ratio relative to untreated controls (100%), mean ± SD
Procedure: as §6, §7

[9] = tested on: HL-60 cells; assay: TUNEL assay; format: cell-based, human; conditions: 10 μM; 16 h incubation
[10] = tested on: HUVEC cells; assay: Tube formation assay on matrigel; format: cell-based
Procedure: 35 μL of media:matrigel (1:1) were added into wells of a 96-well plate and incubated at 37° C. for 30 minutes. A trypsinized HUVEC cell suspension was set to 800.000 cells/mL. In another 96-well plate 25 μL of the compound stock were serially diluted with 25 μL of media. 25 μL of compound dilutions and 25 μL of cell suspension were added to the matrigel coated 96-well plate and the cells were incubated over night. As a negative control, methanol was used as in place of the compound dilutions.

[11] = tested on: L929 fibroblasts; assay: Cytotoxicity, L929; format: cell-based; conditions: Mus musculus, read-out: IC50 L-929
Procedure: (§8) The compounds 9a, 9b and 9c, which are exemplary compounds of formula (III) according to the present invention, as well as the reference compound 25f were tested in a similar manner.

[12] = tested on: KB-3-1 cervix carcinoma; assay: Cytotoxicity, KB-3-1; format: cell-based; conditions: Homo sapiens
Procedure: as §8

[13] = tested on: PC-3 prostata cancer; assay: Cytotoxicity, PC-3; format: cell-based
Procedure: as §8

[14] = tested on: PtK-2 opossum kidney cells; assay: Cytotoxicity, PtK-2; format: cell-based; conditions: PtK2; PtK-2 opossum kidney cells (non-malign)
Procedure: as §8

[15] = tested on: NHDF fibroblasts; assay: Cytotoxicity, NHDF; format: cell-based; conditions: Homo sapiens; NHDF fibroblasts (non-malign)
Procedure: as §8

[16] = tested on: HUVEC cells; assay: Minimal inhibitory concentration in HUVEC; format: cell-based
Procedure: as §8

[17] = Bedford et al., Bioorg. Med. Chem. Lett. 1996; cited from earlier work
[18] = tested on: 1411HP germ cell tumor xenografts; conditions: 1411HP xenografts; cited from earlier work
[19] = tested on: H12.1 xenograft; conditions: H12.1 xenograft bearing mice; cited from earlier work

SMILES	IC50 [11] [nM]	IC50 [12] [nM]	IC50 [13] [nM]	IC50 [14] [nM]	IC50 [15] [nM]	minimal inhibitory concentration (MIC) HUVEC [16] [µM]	also measured
COc1ccc(/C=C\c2cc(OC)c(OC)c(OC)c2)cc1O [CA-4, combretastatin A-4, reference compound]							cytotoxicity (comparison) [1]: lower cytotoxicities than compounds 5b and 6b; effect on embryonal blood vessels [2]: dramatic vessel shrinkage within 24 h after treatment and to a complete degradation of the vascular system within three days
COc1ccc(-c2ocnc2-c2cc(N)c(OC)c(OC)c2)cc1N [compound 8a, 4-(3′-Amino-4′,5′-dimethoxyphenyl)-5-(3″-amino-4″-methoxyphenyl)-oxazole]							efficacy (comparison) [3]: greater efficacy than 25f and 5b/6b; cytotoxicity / efficacy (comparison) [4]: greater efficacy than 25f and 5b/6b; NBT Reduction [%] in 518A2 cells after 24 h [5]: 1.5 ± 0.1%; NBT Reduction [%] in HL-60 cells after 24 h [6]: 3.5 ± 0.4%; Intact mitochondria [%] in 518A2 cells after 72 h [7]: 85 ± 7%; Intact mitochondria [%] in HL-60 cells after 72 h [8]: 62 ± 9%; apoptotic (TUNEL-positive) cells [9]: about 60%; inhibition of tube formation ([10]; 7.72 ng/mL): pronounced inhibition of tube formation
COc1ccc(-c2c(-c3cc(OC)c(OC)c(OC)c3)ncn2C)cc1N [compound 25f, reference compound]	215	68	90	453	136	0.294 (≈ 0.109 µg/mL)	NBT Reduction [%] in 518A2 cells after 24 h [5]: 2.2 ± 0.4%; Intact mitochondria [%] in 518A2 cells after 72 h [7]: 87 ± 7%; Intact mitochondria [%] in HL-60 cells after 72 h [8]: 74% and 74 ± 13%; concentration that inhibits tube formation [10]: 130 ng/mL
COc1ccc(/C=C\c2cc(OC)c(OC)c(OC)c2)cc1OP(=O)(O)O [combretastatin A-4-phosphate]							solubility in water [17]: about 5 mg/mL
COc1ccc(-c2ncn(C)c2-c2cc(I)c(OC)c(I)c2)cc1F [9c, 1-Methyl-4-(3-fluoro-4-methoxyphenyl)-5-(3,5-diiodo-4-methoxyphenyl)-imidazole]	18	2.5	3.3	333	3330	0.083 (≈ 0.0468 µg/mL)	
COc1ccc(-c2ncn(C)c2-c2cc(Br)c(OC)c(Br)c2)cc1F [9b, 1-Methyl-4-(3-fluoro-4-methoxyphenyl)-5-(3,5-dibromo-4-methoxyphenyl)-imidazole]	21700	14	9.9	1180	395	0.257 (≈ 0.121 µg/mL)	
N.N.[Cl][Pt][Cl] [cisplatin]							tumor response [18]: only a transient growth inhibition followed by renewed tumor progress; tumor response [19]: complete regressions
